# Literature values, collected in article PMC9697394, “Recent Synthesis, Characterization, and Pharmacological Evaluation of Multifunctional Hemorphins Containing Non-Natural Amino Acids with Potential Biological Importance” (Pharmaceuticals, 2022).
# Read-outs that look alike come from different tables or passages of the source. Where no end group is shown, it is not given here. [ ]: non-standard residue; d: D form. Ac6c = NC1(C(=O)O)CCCCC1; Orn = NCCC[C@H](N)C(=O)O; Ac5c = NC1(C(=O)O)CCCC1; Dab = NCC[C@H](N)C(=O)O; Dap = NC[C@H](N)C(=O)O; Aib = CC(C)(N)C(=O)O; Sar = CNCC(=O)O
# Key:
# mice [1] = conditions: MES test in mice
# mice [2] = conditions: rotarod
# mice [3] = conditions: 6 Hz test in mice, TPE 10 min
# Description: Modifications have been made by replacing Pro at position 2 with the unnatural and conformationally restricted amino acids Ac5c and Ac6c, as well as introducing the adamantane residue from the N-terminus of the hemorphin-4 molecule that would lead to multiple target systems.
# [4] = for isoelectric point (pI): Figure 6; for charge at pH 7.4 (in words): based on pKa constants and isoelectric points
# Description: The structure–activity relationship of a series of new analogs of the shortest of all hemorphins, hemorphin-4, was elucidated by Todorov et al. (compounds P4-1, P4-2, P4-3, P4-4, and P4-5). Modifications have been made by replacing Pro at position 2 with the unnatural and conformationally restricted amino acids Ac5c and Ac6c, as well as introducing the adamantane residue from the N-terminus of the hemorphin-4 molecule that would lead to multiple target systems. […] It is known that some identical amino acid residues can have different reactivity with respect to given chemical reagents. For example, in an enzyme molecule, only one or a small number of side chains of amino acid residues located in the “active” center can bind substrates or coenzymes, while others with the same chemical composition cannot. As is known, a large part of the hydro ...
# [5] = by potentiometric titration
# Description: Table 6 Parameters of the voltammetric measurements and the electrochemical data of peptides. | column: pKa1; pKa2 Constants
# rat [6] = conditions: rat blood pressure assay
# Description: Table 5 Bioactive hemorphin peptides. | column: Concentration/Dose; Effect
# [7] = at the spinal level; 27.2 nmol i.t.
# Description: (§1) Table 5 Bioactive hemorphin peptides. | column: Effect
# rat [8] = conditions: Barnes circular maze in rat; 100 pmol
# Description: as §1
# WK rats and SHRs = conditions: radiotelemetry in WK rats and SHRs; 100 µg/kg
# Description: as §1
# [9] = tested on: rat locus coeruleus neurons; conditions: in vitro LC neurons; read-out: IC50, inhibition of the spontaneous firing
# Description: (§2) Table 5 Bioactive hemorphin peptides. | column: Concentration/Dose
# rat mu-opioid receptor = conditions: merged cell of Table 5; read-out: IC50, binds to rat mu-opioid receptor
# Description: as §2
# [10] = tested on: guinea pig ileum muscle preparation; conditions: merged cell of Table 5, read-out: IC50, inhibition of the electrically induced contractions
# Description: as §2
# [11] = tested on: L929 and K562 tumor cells; conditions: 10^−7–10^−13 M concentration range
# Description: as §1
# [12] = tested on: tumor (L929 and A549) cell cultures; conditions: 0.5 µM epirubicin added 24 h prior to 1 µM valorphin; 1 µM valorphin added 48 h prior to 0.1 µM epirubicin
# Description: as §1
# [13] = tested on: cerebellar Purkinje cells; conditions: in vitro cerebellar Purkinje cells
# Description: as §1
# mice; rat = conditions: hot plate, tail flick test in mice; Randall–Selitto test in rat
# Description: as §1
# mice [14] = conditions: ivPTZ seizure test in mice; TPE 10 min; rank order, hemorphin-7 analogs containing unnatural amino acids
# Description: Moreover, this peptide analog had the lowest ...
# [15] = TPE 10 min, hemorphin-4 analogs
# [16] = Table 2 (MES), TPE 10 min, hemorphin-4 analogs, unit inferred
# [17] = TPE 10 min, LVV- and VV-hemorphin-7 analogs
# [18] = Table 2 (MES), LVV- and VV-hemorphin-7 analogs, unit inferred
# [19] = TPE 10 min, VV-hemorphin-5 analogs
# [20] = Table 2 (MES), VV-hemorphin-5 analogs, unit inferred
# [21] = LVV- and VV-hemorphin-7 analogs
# [22] = VV-hemorphin-7 analogs containing unnatural amino acids
molecule,measurement,setting,value
"O=C1NC(=O)C(c2ccccc2)(c2ccccc2)N1 [Phenytoin, 5,5′-diphenylhydantoin, reference compound]",ED50 (median effective dose),"mice [1]; TPE 60 min, reference drug, ref not given",4.92 mg/kg
same,TD50 (median minimal neurotoxic dose),"mice [2]; TPE 60 min, Table 2, ref not given",>100 mg/kg
Aaa-Tyr-Ac5c-Trp-Thr-NH2 [P4-4],ED50 (median effective dose),mice [1]; [15],2.33 µg
same,ED50 (median effective dose),mice [3]; hemorphin-4 analogs,0.44 µg
same,isoelectric point (pI),[4],about 7
same,charge at pH 7.4 (in words),[4],positively charged
same,TD50 (median minimal neurotoxic dose),mice [2]; [16],> 10 mg/kg
same,pKa1,[5],6.16
same,pKa2,[5],8.90
Aaa-Tyr-Ac6c-Trp-Thr-NH2 [P4-5],ED50 (median effective dose),mice [1]; [15],0.41 µg
same,ED50 (median effective dose),mice [3]; hemorphin-4 analogs,0.64 µg
same,isoelectric point (pI),[4],about 7
same,charge at pH 7.4 (in words),[4],positively charged
same,TD50 (median minimal neurotoxic dose),mice [2]; [16],> 10 mg/kg
same,pKa1,[5],6.20
same,pKa2,[5],9.06
Aaa-Tyr-Pro-Trp-Thr-NH2 [P4-3],ED50 (median effective dose),mice [1]; [15],1.66 µg
same,ED50 (median effective dose),mice [3]; hemorphin-4 analogs,0.83 µg
same,TD50 (median minimal neurotoxic dose),mice [2]; [16],> 10 mg/kg
same,pKa1,[5],3.88
same,pKa2,[5],6.93
D-Leu-Val-Val-Tyr-Pro-Trp-Thr-Gln-Arg-D-Phe-NH2 [H7-3],ED50 (median effective dose),mice [1]; [17],0.68 µg
same,TD50 (median minimal neurotoxic dose),mice [2]; [18],> 8 mg/kg
same,pKa1,[5],3.05
same,pKa2,[5],6.78
DGRVVYPWTQRFRGD-NH2 [RGD2],pKa1,[5],3.48
same,pKa2,[5],6.34
IVVYPWTQ-NH2 [V6],ED50 (median effective dose),mice [1]; [19],16.77 µg
same,ED50 (median effective dose),mice [3]; VV-hemorphin-5 analogs,5.55 µg
same,TD50 (median minimal neurotoxic dose),mice [2]; [20],> 20 mg/kg
same,pKa constant (one value given),[5],"8.01, [48, 49]"
IVVYPWTQR[dF]-NH2 [H7-1],ED50 (median effective dose),mice [3]; [21],0.33 µg
same,pKa1,[5],2.98
same,pKa2,[5],6.12
IVYPWTQR[dF]-NH2 [H7-2],ED50 (median effective dose),mice [1]; [17],0.94 µg
same,ED50 (median effective dose),mice [3]; [21],2.6 µg
same,TD50 (median minimal neurotoxic dose),mice [2]; [18],> 8 mg/kg
same,pKa1,[5],3.09
same,pKa2,[5],6.62
Leu-Val-Val-Tyr-Pro-Trp-Thr-Gln-Arg-Phe [LVV-hemorphin-7],cardiovascular activity (in words),rat [6],pressor and tachycardic activities mediated by the SNS
same,ED25,rat [6]; pressor activity,128.0 nmol/kg
same,effect on carrageenan-induced hyperalgesia (in words),[7],decrease
same,effect on spatial learning (in words),rat [8],enhanced spatial learning
same,effect on blood pressure (in words),WK rats and SHRs,Reduce blood pressure
Tyr-D-Arg-Phe-Lys-NH2 [DALDA],IC50,[9],20 nM
Tyr-Pro-Leu-Gly-NH2 [Tyr-MIF-1],IC50,[9],37500 nM
Tyr-Pro-Phe-Phe-NH2 [endomorphin-2],IC50,[9],5.3 nM
Tyr-Pro-Phe-Pro-NH2 [morphiceptin],IC50,[9],65 nM
Tyr-Pro-Trp-Gly-NH2 [Tyr-W-MIF-I],IC50,[9],3800 nM
Tyr-Pro-Trp-Phe-NH2 [endomorphin-1],IC50,[9],8.8 nM
Tyr-Pro-Trp-Thr [hemorphin-4],IC50,[9],6700 nM
VVYPWTK-NH2 [V5],ED50 (median effective dose),mice [1]; [19],3.19 µg
same,ED50 (median effective dose),mice [3]; VV-hemorphin-5 analogs,9.89 µg
same,TD50 (median minimal neurotoxic dose),mice [2]; [20],> 20 mg/kg
same,pKa constant (one value given),[5],"8.24, [48, 49]"
VVYPWTQ [Valorphin],IC50,rat mu-opioid receptor,14 nM
same,IC50,[10],10000 nM
same,effect on tumor cells (in words),[11],Tumor cell cytolysis
same,cell death,[12],100%
same,effect on spontaneous firing (in words),[13],inhibition of the spontaneous firing
same,analgesic effect (in words),mice; rat,opioid analgesic activity
VVYPWTQRFRGD-NH2 [RGD1],pKa1,[5],3.53
same,pKa2,[5],6.42
VVYPWT[Dab]-NH2 [V3],pKa constant (one value given),[5],"8.12, [48, 49]"
VVYPWT[Dab]RF-NH2 [VV-H-5],ED50 (median effective dose),mice [3]; [22],0.89 µg
same,"pKa (Dap, Dab)",[5],7.21
same,pKa (Tyr),[5],5.98
same,pKa (Val),[5],8.08
VVYPWT[Dap]-NH2 [V2],ED50 (median effective dose),mice [3]; VV-hemorphin-5 analogs,9.97 µg
same,pKa constant (one value given),[5],"9.23, [48, 49]"
VVYPWT[Dap]RF-NH2 [VV-H-4],ED50 (median effective dose),mice [3]; [22],3.83 µg
same,Comparison of Activity Related to the Threshold Dose (µg/10 µL) for Clonic Seizures,mice [14],VV–H7 = V–H4
same,"pKa (Dap, Dab)",[5],5.46
same,pKa (Tyr),[5],3.14
same,pKa (Val),[5],7.10
VVYPWT[Orn]-NH2 [V4],ED50 (median effective dose),mice [1]; [19],3.63 µg
same,ED50 (median effective dose),mice [3]; VV-hemorphin-5 analogs,5.09 µg
same,TD50 (median minimal neurotoxic dose),mice [2]; [20],> 20 mg/kg
same,pKa constant (one value given),[5],"7.83, [48, 49]"
VVY[Ac5c]WTQRF-NH2 [VV-H-2],ED50 (median effective dose),mice [3]; [22],5.69 µg
same,pKa (Tyr),[5],5.34
same,pKa (Val),[5],8.04
VVY[Ac5c]WT[Dab]RF-NH2 [VV-H-7],ED50 (median effective dose),mice [3]; [22],0.89 µg
same,"pKa (Dap, Dab)",[5],7.26
same,pKa (Tyr),[5],4.70
same,pKa (Val),[5],8.21
VVY[Ac5c]WT[Dap]RF-NH2 [VV-H-6],"pKa (Dap, Dab)",[5],6.87
same,pKa (Tyr),[5],4.72
same,pKa (Val),[5],8.15
VVY[Ac6c]WTQRF-NH2 [VV-H-3],ED50 (median effective dose),mice [3]; [22],5.69 µg
same,pKa (Tyr),[5],4.83
same,pKa (Val),[5],7.49
VVY[Ac6c]WT[Dab]RF-NH2 [VV-H-9],ED50 (median effective dose),mice [3]; [22],1.09 µg
same,"pKa (Dap, Dab)",[5],8.80
same,pKa (Tyr),[5],4.66
same,pKa (Val),[5],9.08
VVY[Ac6c]WT[Dap]RF-NH2 [VV-H-8],ED50 (median effective dose),mice [3]; [22],1.01 µg
same,"pKa (Dap, Dab)",[5],8.03
same,pKa (Tyr),[5],5.27
same,pKa (Val),[5],9.20
Y[Ac5c]WT-NH2 [P4-1],ED50 (median effective dose),mice [3]; hemorphin-4 analogs,0.52 µg
same,pKa1,[5],3.89
same,pKa2,[5],6.52
Y[Ac6c]WT-NH2 [P4-2],ED50 (median effective dose),mice [1]; [15],2.33 µg
same,ED50 (median effective dose),mice [3]; hemorphin-4 analogs,2.16 µg
same,TD50 (median minimal neurotoxic dose),mice [2]; [16],> 10 mg/kg
same,pKa1,[5],3.93
same,pKa2,[5],6.71
Y[dR]F[Sar] [TAPS],IC50,[9],1.9 nM
[Aib]VVYPWTQ-NH2 [V7],ED50 (median effective dose),mice [1]; [19],16.55 µg
same,ED50 (median effective dose),mice [3]; VV-hemorphin-5 analogs,6.61 µg
same,TD50 (median minimal neurotoxic dose),mice [2]; [20],> 20 mg/kg
same,pKa constant (one value given),[5],"8.17, [48, 49]"
[dV]VYPWTQR[dF]-NH2 [H7-4],ED50 (median effective dose),mice [1]; [17],2.54 µg
same,TD50 (median minimal neurotoxic dose),mice [2]; [18],> 15 mg/kg
same,pKa1,[5],3.22
same,pKa2,[5],6.52
rhodamineB-Gly-Tyr-Pro-Trp-Thr-NH2 [Rh-1],pKa1,[5],2.81
same,pKa2,[5],6.60
rhodamineB-β-Ala-Tyr-Pro-Trp- Thr-NH2 [Rh-2],pKa1,[5],2.78
same,pKa2,[5],6.38
rhodamineB-γ-Abu-Tyr-Pro-Trp-Thr-NH2 [Rh-3],pKa1,[5],2.86
same,pKa2,[5],6.39
